Source: patent US10994015B2, “EGFR proteolysis targeting chimeric molecules and associated methods of use” (Arvinas Operations, Inc., priority 2016, dated 2021)

What was measured:
EGFR L858R/T790M = EGFR L858R/T790M (Homo sapiens (Human), UniProt P00533, L858R/T790M); experiment: TR-FRET assay for ERBB kinases; format: biochemical; settings: geometric mean if measured more than once
Description: (§1) TR-FRET Assay for ERBB Kinases
(§2) All compounds and PROTACs were serially diluted in three-fold increments using 100% DMSO, followed by an intermediate 10-fold dilution using Buffer A (50 mM HEPES, pH 7.5, 50 mM NaCl, 10 mM MgCl2, 1 mM DTT, and 0.1% Pluronic F-68). […] Next, 10 uL of protein kinase in Buffer A was added to each well of the assay plate and pre-incubated with compound for 10 minutes. Kinase reactions were then initiated by addition of 5 uL substrate mix containing 3 mM ATP and 30 uM fluorescein-labeled Poly-GluTyr (Thermo Fisher, #PV3610) in Buffer A and allowed to proceed for 10 minutes at room temperature. Reactions were quenched by addition of a 5 uL mixture containing 5 nM LanthaScreen® Tb-pY20 Antibody (Thermo Fisher, #PV3552) and 40 mM EDTA in Buffer A. Assay plates were then read using a Synergy2 (Biotek Instruments, Winooski, Vt.) via excitation thru a 340/20 nm bandpass filter and emission collected thru 490/10 nm (donor) and 520/25 nm (acceptor) bandpass filters.

EGFR WT = EGFR WT (Homo sapiens (Human), UniProt P00533); experiment: TR-FRET assay for ERBB kinases; format: biochemical; settings: geometric mean if measured more than once
EGFR WT, sequence (P00533 25-1210): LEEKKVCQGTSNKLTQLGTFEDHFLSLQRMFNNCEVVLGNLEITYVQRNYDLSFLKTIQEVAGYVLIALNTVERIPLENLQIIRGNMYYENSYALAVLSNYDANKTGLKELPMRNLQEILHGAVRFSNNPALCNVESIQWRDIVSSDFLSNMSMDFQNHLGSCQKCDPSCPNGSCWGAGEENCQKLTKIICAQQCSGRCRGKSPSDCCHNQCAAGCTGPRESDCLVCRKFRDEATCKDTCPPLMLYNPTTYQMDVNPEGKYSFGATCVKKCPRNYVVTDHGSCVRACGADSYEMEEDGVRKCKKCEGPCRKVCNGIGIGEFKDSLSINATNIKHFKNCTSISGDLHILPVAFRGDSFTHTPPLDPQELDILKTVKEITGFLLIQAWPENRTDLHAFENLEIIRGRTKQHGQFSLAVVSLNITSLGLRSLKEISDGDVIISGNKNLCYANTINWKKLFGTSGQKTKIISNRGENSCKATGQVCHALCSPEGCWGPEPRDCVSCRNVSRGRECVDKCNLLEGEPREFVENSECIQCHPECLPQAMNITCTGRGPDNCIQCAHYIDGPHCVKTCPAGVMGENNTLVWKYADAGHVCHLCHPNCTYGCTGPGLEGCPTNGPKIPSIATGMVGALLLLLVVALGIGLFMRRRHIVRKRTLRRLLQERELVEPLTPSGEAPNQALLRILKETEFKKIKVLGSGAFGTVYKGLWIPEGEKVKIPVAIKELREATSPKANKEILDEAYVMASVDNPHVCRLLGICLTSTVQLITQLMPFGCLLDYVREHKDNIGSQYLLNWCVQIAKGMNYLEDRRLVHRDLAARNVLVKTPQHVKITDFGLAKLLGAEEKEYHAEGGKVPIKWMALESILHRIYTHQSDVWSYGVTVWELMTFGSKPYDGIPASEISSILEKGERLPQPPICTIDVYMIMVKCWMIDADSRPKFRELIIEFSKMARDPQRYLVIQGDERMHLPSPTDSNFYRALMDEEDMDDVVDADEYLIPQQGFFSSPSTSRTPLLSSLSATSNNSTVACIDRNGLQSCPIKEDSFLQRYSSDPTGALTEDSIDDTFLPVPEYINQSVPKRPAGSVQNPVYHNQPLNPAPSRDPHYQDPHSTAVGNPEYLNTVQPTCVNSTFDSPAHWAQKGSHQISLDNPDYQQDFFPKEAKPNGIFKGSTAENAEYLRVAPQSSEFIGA
Description: as §1, §2

EGFR L858R/T790M/C797S = EGFR L858R/T790M/C797S (Homo sapiens (Human), UniProt P00533, C797S/L858R/T790M); experiment: TR-FRET assay for ERBB kinases; format: biochemical; settings: geometric mean if measured more than once
Description: as §1, §2

[1] = biological target: EGFR L858R/T790M/C797S triple mutant (H520*) (Homo sapiens (Human), UniProt P00533, C797S/L858R/T790M); experiment: EGFR protein degradation assay (Western blot); format: cell-based; settings: 72 hours, 300 nM to 10 nM
Description: (§3) EGFR Protein Degradation assay
Cells were incubated overnight at 37° C., 5% CO2 prior to compound addition. A 10 mM compound stock in DMSO was serially diluted in DMSO to provide the following stock concentrations: 1, 0.3, 0.1, 0.03 and 0.01 mM. An appropriate volume of each compound dilution, together with a DMSO vehicle control, was added to media to provide a 2× compound solution. […] At the end of the compound treatment, cells were washed once with ice-cold phosphate-buffered saline (PBS) and treated with lysis solution (1× lysis buffer, Cell Signaling Technologies (CST #9803) supplemented with Piarce™ protease inhibitors, #A32953, Thermo Fisher Scientific, TFS). Lysates were collected and clarified of cell debris by spinning at 10K rpm for 10 minutes. A specific volume of supernatant was retrieved for protein quantification (Pierce™ BCA kit, TFS #23225) and for Western analysis. Loading buffer supplemented with EDTA and reducing agent was added to each supernatant. A specific volume of supernatant (determined by protein assay: […] loaded per sample) was loaded into a NuPAGE™ 4-12% Bis-Tris gel (TFS). Samples were run at 165V in MOPS running buffer for 2 hours and then transferred to PVDF blotting membrane using a dry blotting system (iBlot2, TFS). Membranes were blocked in Tris-buffered saline supplemented with Tween, 0.1% (TBST) containing 5% non-fat dry milk, (AmericanBio). Following block, membranes were washed once with TBST. […] Membranes were washed 3× with TBST prior to addition of secondary antibody (1:10 000, anti-rabbit HRP-linked, CST #7074) in TBST with 3% BSA and then incubated at room temperature for one hour. Membranes were then washed 3× with TBS and signal developed by exposure to developer (SuperSignal West Femto, TFS) for 5 minutes. Membranes were then immediately imaged using a BioRad Chemidoc.

[2] = biological target: EGFR L858R/T790M double mutant (H1975) (Homo sapiens (Human), UniProt P00533, L858R/T790M); experiment: EGFR protein degradation assay (Western blot); format: cell-based; settings: 72 hours, 300 nM to 10 nM
EGFR L858R/T790M double mutant (H1975), sequence (P00533 25-1210 T790M/L858R): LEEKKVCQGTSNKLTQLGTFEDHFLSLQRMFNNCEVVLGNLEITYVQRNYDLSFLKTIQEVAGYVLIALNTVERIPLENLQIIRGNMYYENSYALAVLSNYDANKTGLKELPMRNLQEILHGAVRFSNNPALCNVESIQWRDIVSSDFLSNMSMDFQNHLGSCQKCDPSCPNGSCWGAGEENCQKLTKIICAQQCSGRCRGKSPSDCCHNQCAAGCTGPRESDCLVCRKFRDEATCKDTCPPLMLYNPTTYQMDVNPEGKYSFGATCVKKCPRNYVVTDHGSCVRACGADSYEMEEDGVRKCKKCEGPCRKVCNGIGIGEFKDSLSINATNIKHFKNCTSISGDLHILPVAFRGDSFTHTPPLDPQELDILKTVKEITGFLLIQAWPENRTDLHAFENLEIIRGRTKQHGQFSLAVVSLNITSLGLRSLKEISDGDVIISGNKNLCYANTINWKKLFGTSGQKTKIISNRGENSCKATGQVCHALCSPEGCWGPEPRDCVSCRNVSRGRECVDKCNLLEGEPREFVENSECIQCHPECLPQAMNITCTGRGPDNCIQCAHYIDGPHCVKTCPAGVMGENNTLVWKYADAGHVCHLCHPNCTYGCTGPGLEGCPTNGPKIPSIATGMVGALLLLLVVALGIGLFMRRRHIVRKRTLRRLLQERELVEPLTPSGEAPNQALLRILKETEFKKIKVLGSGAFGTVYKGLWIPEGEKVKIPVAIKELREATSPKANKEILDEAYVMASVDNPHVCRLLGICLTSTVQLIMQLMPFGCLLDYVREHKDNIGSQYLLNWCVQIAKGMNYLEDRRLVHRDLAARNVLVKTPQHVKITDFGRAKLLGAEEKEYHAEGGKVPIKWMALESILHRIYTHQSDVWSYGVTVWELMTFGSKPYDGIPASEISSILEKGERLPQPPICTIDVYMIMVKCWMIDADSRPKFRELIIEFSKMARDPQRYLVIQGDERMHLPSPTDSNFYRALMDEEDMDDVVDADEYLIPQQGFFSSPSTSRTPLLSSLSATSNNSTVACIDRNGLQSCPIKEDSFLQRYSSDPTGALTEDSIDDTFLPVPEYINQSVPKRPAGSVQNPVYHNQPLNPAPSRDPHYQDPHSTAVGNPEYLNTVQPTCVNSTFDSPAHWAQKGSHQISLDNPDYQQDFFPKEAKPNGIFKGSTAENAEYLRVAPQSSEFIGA
Description: as §3
Cells expressing the appropriate form of EGFR were seeded in 6-well plates (300,000 cells per well) and allowed to adhere to the plate overnight. […] To harvest cells, media was removed and cells were washed once with ice-cold phosphate-buffered saline (PBS) prior to the addition of 400 μl lysis buffer (Cell Signaling Technology) supplemented with a protease inhibitor cocktail (Thermo Scientific). Cells were scraped from the plate and the cell lysate transferred to an Eppendorf tube and then clarified by a single spin at 10 000 rpm for 10 minutes. The protein concentration of each lysate was determined (BCA kit, Thermo Scientific) prior to the addition of loading buffer (Invitrogen) and reducing agent (Invitrogen). 10 μg protein of each lysate was loaded on an SDS/PAGE gel and run at 165V for 2 hours. Following transfer to a PVDF membrane (iBlot2, Thermo Fisher Scientific), the membrane was blocked in Tris-buffered saline containing 0.1% Tween-20 (TBS-T) and supplemented with 5% powdered milk for 1 hour. Membranes were then probed with EGFR and tubulin (loaded control) primary antibodies in TBS-T containing 3% bovine serum albumin (BSA) overnight at 4° C. Membranes were washed thrice with TBS-T before incubation with secondary antibody in TBS-T containing 3% bovine serum albumin (BSA) and incubated for 1 hour at room temperature. Following 3 further washes with TBS, membrane proteins of interest were detected by enzyme-linked chemiluminescence (ECL) using a Chemidoc (Bio-Rad).

EGFR Exon20NPG = EGFR Exon20NPG (Homo sapiens (Human), UniProt P00533, INS770NPG); experiment: TR-FRET assay for ERBB kinases; format: biochemical; settings: geometric mean if measured more than once
EGFR Exon20NPG, sequence (P00533 other isoform, or with tags, fused parts or gaps del 1-694/ins NPG behind 770 limits assumed): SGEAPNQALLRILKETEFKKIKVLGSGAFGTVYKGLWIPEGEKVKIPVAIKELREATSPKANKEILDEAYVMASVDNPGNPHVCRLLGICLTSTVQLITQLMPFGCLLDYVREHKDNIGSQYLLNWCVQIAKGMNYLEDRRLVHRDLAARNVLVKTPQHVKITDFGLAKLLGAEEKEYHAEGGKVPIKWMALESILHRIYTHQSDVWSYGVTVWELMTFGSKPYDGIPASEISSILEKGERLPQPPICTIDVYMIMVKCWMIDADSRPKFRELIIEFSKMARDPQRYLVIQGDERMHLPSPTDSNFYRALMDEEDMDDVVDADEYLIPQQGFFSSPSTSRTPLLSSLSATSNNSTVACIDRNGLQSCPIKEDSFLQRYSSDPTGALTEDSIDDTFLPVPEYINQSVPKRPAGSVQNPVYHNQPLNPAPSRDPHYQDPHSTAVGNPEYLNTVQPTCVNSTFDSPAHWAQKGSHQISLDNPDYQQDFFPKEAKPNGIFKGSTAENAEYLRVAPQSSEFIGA
Description: as §1
All compounds and PROTACs were serially diluted in three-fold increments using 100% DMSO, followed by an intermediate 10-fold dilution using Buffer A (50 mM HEPES, pH 7.5, 50 mM NaCl, 10 mM MgCl2, 1 mM DTT, and 0.1% Pluronic F-68). Two microliters of serially diluted compound or PROTAC were then transferred to black 384-well Proxiplates (PerkinElmer, #6008260) using an Integra Viaflo96. Next, 10 uL of protein kinase in Buffer A was added to each well of the assay plate and pre-incubated with compound for 10 minutes. Kinase reactions were then initiated by addition of 5 uL substrate mix containing 3 mM ATP and 30 uM fluorescein-labeled Poly-GluTyr (Thermo Fisher, #PV3610) in Buffer A and allowed to proceed for 10 minutes at room temperature. Reactions were quenched by addition of a 5 uL mixture containing 5 nM LanthaScreen® Tb-pY20 Antibody (Thermo Fisher, #PV3552) and 40 mM EDTA in Buffer A. Assay plates were then read using a Synergy2 (Biotek Instruments, Winooski, Vt.) via excitation thru a 340/20 nm bandpass filter and emission collected thru 490/10 nm (donor) and 520/25 nm (acceptor) bandpass filters.

EGFR L858R/T790M, sequence (P00533 25-1210 T790M/L858R): as the sequence (P00533 25-1210 T790M/L858R) above

Compound	IC50 (EGFR L858R/T790M) [nM]	IC50 (EGFR WT) [nM]	IC50 (EGFR L858R/T790M/C797S) [nM]	EGFR protein remaining, EGFR L858R/T790M/C797S triple mutant [1]	EGFR protein remaining, EGFR L858R/T790M double mutant [2]	IC50 (EGFR Exon20NPG) [nM]
COC1CCN(c2nccc(Nc3cc4c(cn3)nc(COCCN3CCN(c5ccc(O[C@H]6C[C@H](OCC(=O)N[C@H](C(=O)N7C[C@H](O)C[C@H]7C(=O)NCc7ccc(-c8scnc8C)cc7)C(C)(C)C)C6)cc5)CC3)n4C(C)C)n2)CC1 [Example 302, (2S,4R)-4-hydroxy-1-((S)-2-(2-((1r,3s)-3-(4-(4-(2-((1-isopropyl-6-((2-(4-methoxypiperidin-1-yl)pyrimidin-4-yl)amino)-1H-imidazo[4,5-c]pyridin-2-yl)methoxy)ethyl)piperazin-1-yl)phenoxy)cyclobutoxy)acetamido)-3,3-dimethylbutanoyl)-N-(4-(4-methylthiazol-5-yl)benzyl)pyrrolidine-2-carboxamide]	670	> 30000	320	A (≤50% EGFR protein remaining after 72 hours of incubation with the test compound at a concentration between 300 nM and 10 nM)	–	–
CC(C)n1c(COCCN2CCN(c3ccc(OCCCN4CCN(c5ccc6c(c5)C(=O)N(C5CCC(=O)NC5=O)C6=O)CC4)cc3)CC2)nc2cnc(Nc3ccnc(-c4cnn(S(=O)(=O)C5CC5)c4)n3)cc21 (stereo not shown) [compound 305]	9.8	2100	1.3	C (>80% EGFR protein remaining after 72 hours of incubation with the test compound at a concentration of 300 nM)	–	–
O=C1CCC(N2C(=O)c3ccc(N4CCC(CN5CCC(OCC#Cc6cccc7c6C(=O)N(C(C(=O)Nc6nccs6)c6cc(F)ccc6O)C7)CC5)CC4)cc3C2=O)C(=O)N1 (stereo not shown) [compound 290]	2700	1100	140	B (≤80% and >50% EGFR protein remaining after 72 hours of incubation with the test compound at a concentration between 300 nM and 10 nM)	–	–
O=C1CCC(N2C(=O)c3cccc(NCCOCCOCCOCCOCCOCCOCC#Cc4cccc5c4C(=O)N(C(C(=O)Nc4nccs4)c4cc(F)ccc4O)C5)c3C2=O)C(=O)N1 (stereo not shown) [compound 295]	3100	34000	710	C (>80% EGFR protein remaining after 72 hours of incubation with the test compound at a concentration of 300 nM)	–	–
Cc1ncsc1-c1ccc([C@H](C)NC(=O)[C@@H]2C[C@@H](O)CN2C(=O)[C@@H](NC(=O)COCCOCCOCCc2ccc(OC3CCN(c4nccc(Nc5cc6c(cn5)nc(C)n6C(C)C)n4)CC3)cc2)C(C)(C)C)cc1 [Example 291, (2S,4R)-1-((S)-2-(Tert-butyl)-14-(4-((1-(4-((1-isopropyl-2-methyl-1H-imidazo[4,5-c]pyridin-6-yl)amino)pyrimidin-2-yl)piperidin-4-yl)oxy)phenyl)-4-oxo-6,9,12-trioxa-3-azatetradecanoyl)-4-hydroxy-N—((S)-1-(4-(4-methylthiazol-5-yl)phenyl)ethyl)pyrrolidine-2-carboxamide]	> 60000	14000	> 60000	C (>80% EGFR protein remaining after 72 hours of incubation with the test compound at a concentration of 300 nM)	–	–
O=C1CCC(N2C(=O)c3ccc(OCCN4CCN(CCCC#Cc5cccc6c5C(=O)N(C(C(=O)Nc5nccs5)c5cc(F)ccc5O)C6)CC4)cc3C2=O)C(=O)N1 (stereo not shown) [compound 94]	6000	2100	1800	–	C (>80% EGFR protein remaining after 72 hours of incubation with the test compound at a concentration of 300 nM)	1500
O=C1CCC(N2C(=O)c3ccc(N4CCN(CCCOCCCCNc5cccc6c5C(=O)N(C(C(=O)Nc5nccs5)c5cc(F)ccc5O)C6)CC4)cc3C2=O)C(=O)N1 (stereo not shown) [compound 289]	1700	1200	190	C (>80% EGFR protein remaining after 72 hours of incubation with the test compound at a concentration of 300 nM)	–	–
O=C1CCC(N2C(=O)c3cccc(NCCOCCOCC#Cc4cccc5c4C(=O)N([C@@H](C(=O)Nc4nccs4)c4cc(F)ccc4O)C5)c3C2=O)C(=O)N1 (stereo partly shown) [compound 264]	> 30000	4200	1100	–	C (>80% EGFR protein remaining after 72 hours of incubation with the test compound at a concentration of 300 nM)	24000
O=C1CCC(N2C(=O)c3ccc(OCCOCCOCCOCCOCCOCC#Cc4cccc5c4C(=O)N([C@@H](C(=O)Nc4nccs4)c4cc(F)ccc4O)C5)cc3C2=O)C(=O)N1 (stereo partly shown) [compound 263]	11000	8600	790	–	C (>80% EGFR protein remaining after 72 hours of incubation with the test compound at a concentration of 300 nM)	12000
Cc1ncsc1-c1ccc([C@H](C)NC(=O)[C@H]2C[C@H](O)CN2C(=O)[C@@H](NC(=O)COCCN2CCN(CCCC#Cc3cccc4c3C(=O)N(C(C(=O)Nc3nccs3)c3cc(F)ccc3O)C4)CC2)C(C)(C)C)cc1 (stereo partly shown) [compound 91]	4700	4300	660	–	C (>80% EGFR protein remaining after 72 hours of incubation with the test compound at a concentration of 300 nM)	8300
O=C1CCC(N2C(=O)c3ccc(N4CCN(CCCC#Cc5cccc6c5C(=O)N(C(C(=O)Nc5nccs5)c5cc(F)ccc5O)C6)CC4)cc3C2=O)C(=O)N1 (stereo not shown) [compound 96]	10000	1900	4600	–	C (>80% EGFR protein remaining after 72 hours of incubation with the test compound at a concentration of 300 nM)	2500
